In US12403184B2, “Compositions and methods for treating neurodegenerative disroders” (priority 2018, dated 2025):
Where no end group is shown, it is not given here.

Experiments:
mtDNA = assay: Measurement of mtDNA lesion by quantitative PCR; format: cell-based, mouse; settings: HdhQ111 cells, relative to TAT
Text: Because the movement of the polymerase on the template is blocked at a lesion, qPCR amplification is inversely proportional to the presence of DNA damage. The level of mtDNA lesion will be calculated by comparing the 10 kb mtDNA fragment amplification, as described previously. To correct for the possible variations in the rate of mtDNA replication, the amplification of 10 kb mtDNA fragment was normalized to the 91 bp small mtDNA amplicon. Specifically, Total DNA was isolated as shown above. The amplification profile consisted of a 45-s denaturation at 94° C., 22 cycles of denaturation for 15 s at 94° C., annealing/extension at 64° C. for 12 min, and a final extension at 72° C. for 10 min.

ATAD3A = target: T1, ATAD3A (Homo sapiens, UniProt Q9NVI7, K135E); assay: ATAD3A dimerization by western blot, HEK293 cells; format: cell-based
T1 construct: expressed in transfected cells; host or cells: HEK293 cells
T1 sequence (Q9NVI7 51-586 K135E limits assumed): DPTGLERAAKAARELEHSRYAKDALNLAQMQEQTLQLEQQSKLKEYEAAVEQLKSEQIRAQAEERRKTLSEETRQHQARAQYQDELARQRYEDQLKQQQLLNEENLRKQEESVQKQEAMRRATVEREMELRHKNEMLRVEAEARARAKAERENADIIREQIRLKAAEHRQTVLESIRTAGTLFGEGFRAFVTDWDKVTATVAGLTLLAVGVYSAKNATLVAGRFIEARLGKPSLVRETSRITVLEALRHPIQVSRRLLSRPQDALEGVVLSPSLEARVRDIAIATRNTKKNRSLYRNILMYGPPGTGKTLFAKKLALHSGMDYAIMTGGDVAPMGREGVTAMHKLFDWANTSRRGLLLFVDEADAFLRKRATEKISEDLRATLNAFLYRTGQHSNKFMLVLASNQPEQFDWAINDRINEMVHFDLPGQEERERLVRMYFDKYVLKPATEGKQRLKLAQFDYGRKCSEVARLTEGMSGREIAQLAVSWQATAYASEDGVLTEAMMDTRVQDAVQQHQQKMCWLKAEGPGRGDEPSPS
Text: Human ATAD3A was amplified from HEK293T cDNA samples through standard PCR methods, and then cloned into pCMV-Myc, pcDNA3.1 (+)-Flag, pEGFP-N1 vectors. ATAD3A truncated mutants were constructed using overlap cloning techniques. ATAD3A point mutant K358E, and K135 mutants (K135E, K135R, K135Q, and K135A) and S2S48 mutants were constructed by using QuickChange II Site-Directed Mutagenesis Kit (Agilent Technologies). Drp1 truncated mutants were described in our previous study. Cells were transfected with plasmids using TransIT®-2020 transfection reagent (Minis Bio LLC, Madison, WI) according to manufacturer's instruction.
To analyze dimerization of ATAD3A under non-reducing conditions, the cells or tissues were harvested and lysed with total lysates buffer. An equal amount of proteins was subject to 8% SDS-PAGE analysis in the presence or absence of β-mercaptoethanol (β-ME). For in vitro BMH crosslinking, the cell lysates were incubated with 1 mM BMH at r.t. for up to 25 min and quenched with 0.1% β-ME, followed by SDS-PAGE analysis. For in-vivo crosslinking, the cells were treated with cell-permeable crosslinker BMH (1 mM) for 20 min at 37° C. After crosslinking, the cells were quenched in PBS with 0.1% β-ME. For DSP crosslinking, the cells were treated with cell-permeable crosslinker for 5 min at 37° C., followed by quenching and washing with 10 mM Glycine in PBS. For formaldehyde (FA) crosslinking, the cells were incubated with PBS buffer containing 1% FA for 20 min at r.t., and the crosslinking reaction was terminated by washing in PBS containing 100 mM glycine. The cells were then lysed and subject to 8% SDS-PAGE analysis. For DTSSP crosslinking of proteins in mitochondrial fractions, isolated mitochondria samples were suspended in the mitochondrial lysis buffer (250 mM sucrose, 20 mM HEPES-NaOH, pH 7.5, 10 mM KCl, 1.5 mM MgCl2, 1 mM EDTA, 1 mM EGTA and protease inhibitor). An equal amount of crude mitochondria was incubated at 30° C. in the presence of 0.5 mM DTSSP. The cross-linking was terminated by the addition of SDS loading buffer. […]

[1] = test system: Drp1 with its mitochondrial adaptors Mff, Fis1 and MIEF1; assay: Immunoprecipitation of Drp1 with mitochondrial adaptors after crosslinking; format: cell-based, mouse; settings: HdhQ111 cells, 1 μM/day for 4 days
Description: For Drp1-Mff or Drp-MiD51 (MIEF1) interaction, the cells were cross-linked by […] for 10 min at r.t., then […] in PBS was added to quench the redundant DSP activity. For Drp1-Fis1 interaction, the cells were cross-linked by 1% FA for 20 min at r.t., then added […] in PBS to quench the redundant activity. The cells were washed with PBS, sonicated, and lysed with 1% Triton X-100 total lysis buffer.

Q: “YGRKKRRQRRRGGEDKRKT-NH2 [DA1, YGRKKRRQRRR-GG-EDKRKT-NH2]” was tested. Which mtDNA lesion (mtDNA) did it give?
A: diminished

Q: And the “dimerization of ATAD3A” value (ATAD3A; HEK293 cells expressing ATAD3A acetyl-deficient mutant K135E)?
A: abolished

Q: What about the “dimerization of ATAD3A” value (ATAD3A; HEK293 cells expressing ATAD3A ΔN50 mutant, 1 μM for 48 h) of the same substance?
A: abolished

Q: What about the “dimerization of ATAD3A” value (ATAD3A; normal cells or cells expressing ATAD3A wildtype) of the same substance?
A: minor effect

Q: What about the “interactions of Drp1 with its mitochondrial adaptors Mff, Fis1 and MIEF1” value [1] of the same substance?
A: did not influence
